The source of these data is US20250011344A1 (priority 2021, published 2025).

For data set [1] the following is noted: PO 2 mg/Kg, FIG. 15, time points other than the one quantified.
A short description of data set [2]: PK of psilocin after a single intravenous administration in rats. The settings on record: IV 1 mg/kg nominal dose; for half-life: T½.
Where [3] appears, read: psilocin in plasma, individual animal.
Where [4] appears, read: psilocin in plasma, individual animal, 1 mg/kg.

Several values for one entry are separate records, joined by “and”; a condition that tells them apart may be missing. Equal entries are not always repeated. Structures can show the parent of a compound that is named as a salt.

On to `CN(C)CCc1c[nH]c2cccc(OP(=O)(OC(C)(C)C)OC(C)(C)C)c12` [Di-tert-butyl [3-[2-(dimethylamino)ethyl]-1H-indol-4-yl] phosphate HCl salt], for which, in data set [1], the “Plasma concentrations of metabolite psilocin at other time points” value was “below limit of quantification (BLQ)”.
Consider `CN(C)CCc1c[nH]c2cccc(O)c12` [Psilocin, psilocin], for which the AUC(0-inf) in data set [2] (male, Sprague-Dawley, rat, plasma, iv, 1 mg/kg, AUCINF_obs, Mean of animals) is 1580 ng·h/mL. For the same molecule, the AUC(0-t) in data set [2] (male, Sprague-Dawley, rat, plasma, iv, 1 mg/kg, AUClast, Mean of animals) was 1920 ng·h/mL. This molecule gave a Cmax in data set [2] (male, Sprague-Dawley, rat, plasma, iv, 1 mg/kg, Cmax, Mean of animals) of 1300 ng/mL. For the same molecule, in data set [2] (male, Sprague-Dawley, rat, plasma, iv, 1 mg/kg, Mean of animals), the half-life was 28.7 min. The half-life in data set [2] (male, Sprague-Dawley, rat, plasma, iv, 1 mg/kg, individual animal) is 24.8 min. The molecule also had a Tlast in data set [2] (psilocin in plasma, Mean of animals) of 24.00 h. For the same molecule, in data set [2] (setting [3]), the Tlast worked out at 24.00 h and the Tmax amounted to 15 min. In data set [2] (setting [4]), the AUCINF_obs was 982 ng·h/mL and 3390 ng·h/mL and 368 ng·h/mL; the AUClast was 1340 ng·h/mL and 3780 ng·h/mL and 646 ng·h/mL; the Cmax was 1110 ng/mL and 2450 ng/mL and 340 ng/mL; the T½ is 21.2 min and 40.1 min.
